Experiments:
[1] = tested on: E. coli wp2 (E. coli wp2 [pKM101] and E. coli wp2 uvrA, combined exposure); experiment: Bacterial reverse gene mutation test Ames MPF Penta I, E. coli wp2; type: cell-based
Excerpt: (§1) The employed commercial assay Ames MPF Penta I comprises the histidine auxotrophic Salmonella tester strains TA98, TA100, TA1535, TA1537 and two tryptophan auxotrophic tester strains E. coli wp2 (E. coli wp2 [pKM101] and E. coli wp2 uvrA, combined exposure). These strains meet the requirements of the OECD guideline 471 for testing chemicals.
(§2) Bacterial strains were exposed to various concentrations of the test compounds in a histidine (His) or tryptophane (Trp) deficient medium. As recommended by ICH S2(R1) guideline, the test was conducted in two assay conditions, with and without addition of microsomal enzymes (S9 mix), taking the potential formation of DNA reactive metabolites via xenobiotic biotransformation into account.
(§3) The potential of the test compound to induce gene mutations is assessed by comparing the control with the test compounds treated bacterial cultures.

ZR-75-1 cells = experiment: Proliferation assay in ZR-75-1 cells; type: cell-based; conditions: Homo sapiens, 144 h, Alamar Blue, read-out: ZR75-1 proliferation assay, EC50[M] (arithmetic mean)
In short: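 KAT6A-amplified ZR-75-1 cells (RPMI 1640, 2.5% FBS) and KAT6A-low MDA-MB-436 cells (DMEM/Ham's F12, 2.5% FBS) were seeded at 3000 cells/well. Treatment lasted 144 h at 37 °C, 5% CO2, in triplicate. Viability was read by Alamar Blue (2 h) fluorescence at […].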

[2] = tested on: Salmonella tester strain TA98; experiment: Bacterial reverse gene mutation test Ames MPF Penta I, TA98; type: cell-based
Excerpt: as §1, §2, §3

[3] = tested on: ESR1 transcription in MVLN cells; experiment: Repression of ESR1 transcription, MVLN luciferase reporter assay; type: cell-based; conditions: Homo sapiens, luciferase signal after 24 h, read-out: MVLN reporter assay, IC50[M] (arithmetic mean)
In short: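 MVLN cells stably carry an ER-responsive vitellogenin A2 element driving luciferase. After 24 h of compound treatment, luciferase was read in lysate as the measure of ERα transcription. Alamar Blue fluorescence (530/590 nm, 2 h) was read first to control for cell loss; samples were run in duplicate.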

KAT6B = target: T1, KAT6B (Homo sapiens, UniProt Q8WYB5); experiment: Kat6b activity assay (TR-FRET, acetylation of biotinylated histone H4 peptide); type: biochemical; conditions: recombinant human GST-tagged Kat6b (431-end), 30 mins at 22° C., read-out: KAT6B activity assay IC50 [mol/l] (arithmetic mean)
T1 construct: fused on or other part: N-terminal GST tag
Excerpt: Kat6b inhibitory activities of the compounds described in the present invention were quantified using a Fluorescence Resonance Energy Transfer (TR-FRET) assay which measures acetylation of a synthetic, biotinylated Histone-H4-derived peptide by the enzyme.
Recombinant human GST-tagged Kat6b protein (431-end, N-terminal GST-tag), purified from Baculovirus-infected insect cells (Sf9), was purchased from SignalChem (#K315-381BG). Histone H4 peptide (amino acids 1-24, […]-VLRD-K(Btn)-amide), which was used as substrate, was synthesized by Biosyntan GmbH, Berlin, Germany. Acetyl Coenzyme A was purchased from Sigma-Aldrich (#A-2056).
Kat6b was incubated for 30 mins at 22° C. in the presence of different concentrations of test substances (0 μM, and within the range 0.01-20 μM) in assay buffer [25 mM Tris/HCl pH 8, 1 mM EGTA, 2.5 mM Glutathion, 0.02% Chicken Albumin, 0.05% Pluronic F127, 25 mM NaCl, 500 nM H4 peptide and 600 nM Acetyl Coenzyme A].
The reaction was stopped by addition of Detection Solution (25 mM HEPES pH 7.5, 0.1% BSA, 22 nM SAXL665 (Cisbio #610SAXLE), 100 μM Anacardic Acid (Enzo #ALX-270-381), 1 nM Anti-Histone H4 (ACETYL K8) Antibody (ABCAM #AB15823), 0.5 nM Anti-Rabbit IgG Eu (Perkin Elmer #AD0083).
The fluorescence emission at 620 nm and 665 nm after excitation at 330-350 nm was measured in a TR-FRET measuring instrument, for instance a Rubystar or a Pherastar (both from BMG Lab Technologies, Offenburg, Germany) or a Viewlux (Perkin-Elmer). The ratio of the emission at 665 nm and at […] was used as indicator of the amount of acetylated peptide.
The resulting data (ratio) were normalized, taking 0% inhibition as the mean value of control measurements where all reagents were included. In this case 50 nl DMSO were used instead of compounds. […] IC50 values were determined by regression analysis based on a 4 parameter equation (minimum, maximum, ICM, Hill; Y=Max+(Min−Max)/(1+(X/ICso) Hill) using the Screener Software (Genedata).

T1 sequence (Q8WYB5 723-2073 limits assumed): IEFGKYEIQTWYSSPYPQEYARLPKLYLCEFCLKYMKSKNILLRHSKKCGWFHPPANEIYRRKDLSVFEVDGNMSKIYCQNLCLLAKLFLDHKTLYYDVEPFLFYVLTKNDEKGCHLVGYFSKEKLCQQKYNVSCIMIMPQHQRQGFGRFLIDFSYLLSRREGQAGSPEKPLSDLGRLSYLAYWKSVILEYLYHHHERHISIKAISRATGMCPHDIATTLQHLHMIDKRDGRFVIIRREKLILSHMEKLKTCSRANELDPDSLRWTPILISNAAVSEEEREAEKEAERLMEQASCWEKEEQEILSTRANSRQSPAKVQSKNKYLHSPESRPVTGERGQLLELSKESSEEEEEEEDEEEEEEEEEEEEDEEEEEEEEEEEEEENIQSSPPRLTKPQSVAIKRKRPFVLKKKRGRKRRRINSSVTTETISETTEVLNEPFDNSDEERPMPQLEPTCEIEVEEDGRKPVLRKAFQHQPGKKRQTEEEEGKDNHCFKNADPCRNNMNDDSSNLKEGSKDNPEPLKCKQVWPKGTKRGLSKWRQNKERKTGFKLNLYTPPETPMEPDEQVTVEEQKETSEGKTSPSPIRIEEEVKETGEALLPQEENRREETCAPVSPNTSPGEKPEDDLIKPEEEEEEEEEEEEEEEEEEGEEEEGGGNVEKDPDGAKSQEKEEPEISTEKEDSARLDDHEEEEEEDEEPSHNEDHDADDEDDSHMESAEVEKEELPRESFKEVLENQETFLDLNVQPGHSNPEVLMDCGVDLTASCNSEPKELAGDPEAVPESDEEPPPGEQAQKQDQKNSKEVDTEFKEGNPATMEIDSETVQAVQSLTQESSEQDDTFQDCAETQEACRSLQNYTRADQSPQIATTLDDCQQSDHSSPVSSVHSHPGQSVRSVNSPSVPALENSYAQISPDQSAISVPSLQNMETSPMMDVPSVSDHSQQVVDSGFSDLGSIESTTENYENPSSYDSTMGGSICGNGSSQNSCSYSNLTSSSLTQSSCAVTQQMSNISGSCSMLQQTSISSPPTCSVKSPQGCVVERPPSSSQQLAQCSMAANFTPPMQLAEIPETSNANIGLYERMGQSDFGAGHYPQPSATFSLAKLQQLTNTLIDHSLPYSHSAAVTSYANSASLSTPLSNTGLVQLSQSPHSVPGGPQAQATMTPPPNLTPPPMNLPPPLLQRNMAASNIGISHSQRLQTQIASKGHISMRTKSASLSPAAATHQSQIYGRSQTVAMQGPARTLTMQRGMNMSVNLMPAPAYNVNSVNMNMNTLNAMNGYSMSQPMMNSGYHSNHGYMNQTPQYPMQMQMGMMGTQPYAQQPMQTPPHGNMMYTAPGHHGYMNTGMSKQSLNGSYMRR

| Structure (SMILES) | Result of the bacterial reverse gene mutation test Ames MPF Penta I, E. coli wp2 ([1]; with addition of S9 mix) | Result of the bacterial reverse gene mutation test Ames MPF Penta I, E. coli wp2 ([1]; without addition of S9 mix) | EC50 (ZR-75-1 cells) [M] | Result of the bacterial reverse gene mutation test Ames MPF Penta I, TA98 ([2]; with addition of S9 mix) | Result of the bacterial reverse gene mutation test Ames MPF Penta I, TA98 ([2]; without addition of S9 mix) | IC50 [3] [M] | IC50 (KAT6B) [µM] |
| --- | --- | --- | --- | --- | --- | --- | --- |
| O=C(NS(=O)(=O)c1ccccc1-c1ccccc1)c1cc2ccc(C3CC3)cc2o1 [Example 16, N-([1,1′-biphenyl]-2-sulfonyl)-6-cyclopropyl-1-benzofuran-2-carboxamide] | negative | negative | 5.93e-06 | negative | negative | 1.02e-06 | 0.104 |
| CCOc1ccccc1S(=O)(=O)NC(=O)c1cc2ccc(C(C)C)cc2o1 [Example 55, N-(2-Ethoxybenzenesulfonyl)-6-(propan-2-yl)-1-benzofuran-2-carboxamide] | negative | negative | 1.27e-05 | negative | negative | 1.34e-06 | 0.538 |

From patent US20240287048A1, “SUBSTITUTED ACYL SULFONAMIDES FOR TREATING CANCER” (The Broad Institute, Inc., priority 2020, published 2024)
